Laboratory results as given in patent publication US4792568A, “Aryl pyrroles as useful antiallergy compounds” (Rorer Pharmaceutical Corporation, priority 1986, dated 1988).

Key:
[1] = molecular target: T1, 5-lipoxygenase (Rattus norvegicus, UniProt P12527); assay: Inhibition of 5-lipoxygenase (5-HETE formation from [14C]-arachidonic acid in rat neutrophils, Calcium Ionophore A23187); assay type: cell-based; conditions: 3 minutes at 30° C.; for IC50: net 5-HETE, read-out: concentration required for inhibition of the 5-lipoxygenase (5-LOX/I50)
T1 construct: A suspension of rat neutrophils in buffer; endogenous in cells; host or cells: rat neutrophils
T1 sequence (P12527 1-673): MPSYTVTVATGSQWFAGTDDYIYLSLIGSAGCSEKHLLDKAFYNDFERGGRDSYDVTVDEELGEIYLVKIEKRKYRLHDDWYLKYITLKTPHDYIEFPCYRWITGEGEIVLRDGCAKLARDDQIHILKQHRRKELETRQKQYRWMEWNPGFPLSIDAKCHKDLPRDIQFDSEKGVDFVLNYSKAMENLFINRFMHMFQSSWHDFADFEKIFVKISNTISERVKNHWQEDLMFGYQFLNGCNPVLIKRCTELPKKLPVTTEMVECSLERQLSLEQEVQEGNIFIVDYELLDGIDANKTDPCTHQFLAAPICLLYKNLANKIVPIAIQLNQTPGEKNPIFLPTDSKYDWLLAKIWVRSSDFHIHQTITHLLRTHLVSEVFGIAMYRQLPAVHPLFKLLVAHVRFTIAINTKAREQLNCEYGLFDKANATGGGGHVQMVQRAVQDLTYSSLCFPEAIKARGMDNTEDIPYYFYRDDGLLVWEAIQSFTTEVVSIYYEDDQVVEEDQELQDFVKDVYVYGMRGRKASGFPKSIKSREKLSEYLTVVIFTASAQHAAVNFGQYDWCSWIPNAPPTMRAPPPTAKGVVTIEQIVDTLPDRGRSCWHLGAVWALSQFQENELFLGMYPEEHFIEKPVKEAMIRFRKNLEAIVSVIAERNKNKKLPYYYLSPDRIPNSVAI
Protocol: The following protocol describes an assay to detect inhibitors of the lipoxygenase. Such inhibitors are believed to be capable of modulating the biosynthesis of the leukotrienes, a property believed to be useful in treating asthma and inflammatory disease states.
A suspension of rat neutrophils in buffer is incubated for 3 minutes at 30° C. with [^14 C]-arachidonic acid (AA) and Calcium Ionophore A23187. Citric acid (2M) is used to quench the reaction. Following the addition of a trace amount of (^3 H)-5-HETE together with an excess of unlabeled 5-HETE to each tube, the mixture is extracted with chloroform/methanol. The organic layer is washed wth dilute acid and an aliquot is transferred to glass tubes and dried. The residue is dissolved in a small volume of chloroform and an aliquot is spotted on silica gel TLC sheets, which are developed with an ethyl acetate/isooctane/water/acetic acid solvent system. The 5-HETE spots are visualized with iodine, cut out and placed in scintillation vials for counting. After adjusting for the extraction efficiency, the amount (pmole) of [^14 C]-5-HETE in each of the tubes is quantitated. The net pmoles of 5-HETE are obtained by subtracting the pmoles of 5-HETE in the tubes containing buffer alone (blank) from the pmoles of 5-HETE in the tubes containing […]. The ability of the test compounds to modulate the activity of this enzyme is determined by a decrease or increase in the net amount of 5-HETE produced.

[2] = test system: leukotriene C4-induced contraction of guinea pig peripheral strips; assay: SRS-A antagonists (SALTI): inhibition of leukotriene C4-induced contraction of guinea pig peripheral lung strips; assay type: cell-based; conditions: 0.2 nM leukotriene C4, 37° C.; for IC50: Cavia porcellus, read-out: concentration required for 50% inhibition of leukotriene C4-induced contraction (I50)
Protocol: Peripheral strips of guinea pig lungs are prepared and hung in tissue baths (Metro #ME-5505, 10 ml) according to the published procedure (Pro. Nat'l. Acad. Sci., U.S.A. Volume 77, pp. 4354-4358, 1980). The strips are thoroughly rinsed in Assay Buffer and then connected with surgical silk thread to the support rods from the tissue baths. The rods are adjusted in the baths and the strips connected to the pressure transducers (Grass FT 103 or Gould UC-3--. The tissue baths are aerated with 95% oxygen-5% carbon dioxide and maintained at 37° C. The Assay Buffer has been made as follows:
For each liter of buffer the following are added to approximately 800 ml of water distilled in glass: 6.87 g NaCl, 0.4 g KCl, […] NaHCO3, 0.14 g NaH2 PO4 H2 O, 0.21 g MgSO4 7H2 O, and 2.0 g D-glucose. Tehn a solution of 0.368 g CaCl2 2H2 O in 100 ml glass-distilled water is slowly added to the buffer. Sufficient water is added to adjust the volume to one liter, and the solution is aerated with 95% oxygen--5% carbon dioxide. Usually 10 liters of buffer are used for an experiment with 4 tissues.
After the tissues have been repeatedly washed and allowed to equilibrate in the tissue bath, they are challenged with 1 μM histamine. After maximum contractions have been obtained, the tissues are washed, and allowed to relax back to baseline tension. This histamine challenge procedure is repeated at least 1 to 2 more times ot obtain a repeatable control response. The average response to 1 μM histamine for each tissue is used to normalize all other challenges.
Responses of each tissue to a predetermined concentration of leukotriene are then obtained. Usually test compounds are examined initially at 30 μM on resting tension of the tissues without any added agonist or antagonist to determine if the compound has any possible intrinsic activity. The tissues are washed, and the test compound is added again. Leukotriene is added after the desired pre-incubation time. The intrinsic activity of the compounds and their effect on leukotriene-induced contractions are then recorded.
The concentration required for 50% inhibition of 0.2 nM leukotriene C4 -induced contraction of guinea pig peripheral strips for the compounds of the Examples 1 to 6 is as follows: […]

SMILES: CCCCCC(O)c1ccn(-c2ccccc2)c1 (stereo not shown) [Example 6, 3-(1-Hydroxyhexyl)-1-phenylpyrrole]
- relative activity at 10 μM (5-lipoxygenase inhibition) [1]: medium

SMILES: CCCCCC(O)c1cccn1-c1cccc(Oc2ccccc2)c1 (stereo not shown) [Example 3, 2-(1-Hydroxyhexyl)-1-(3-phenoxyphenyl)pyrrole]
- IC50 [1]: 7 µM
- concentration required for 50% inhibition of leukotriene C4-induced contraction (I50) [2]: Inactive

SMILES: O=Cc1cccn1-c1cccc(Oc2ccccc2)c1 [Example 1, 1-(3-Phenoxyphenyl)-pyrrole-2-aldehyde]
- relative activity at 10 μM (5-lipoxygenase inhibition) [1]: medium
- IC50 [2]: 20 µM

SMILES: CCCCCC(O)c1ccn(-c2cccc(Oc3ccccc3)c2)c1 (stereo not shown) [Example 4, 3-(1-Hydroxyhexyl)-1-(3-phenoxyphenyl)pyrrole]
- IC50 [1]: 4 µM

SMILES: CCCCCC(O)c1cccn1-c1ccccc1 (stereo not shown) [Example 5, 2-(1-Hydroxyhexyl)-1-phenylpyrrole]
- IC50 [1]: 20 µM
- concentration required for 50% inhibition of leukotriene C4-induced contraction (I50) [2]: Inactive

SMILES: O=Cc1ccn(-c2cccc(Oc3ccccc3)c2)c1 [Example 2, 1-(3-Phenoxyphenyl)-pyrrole-3-aldehyde]
- relative activity at 10 μM (5-lipoxygenase inhibition) [1]: medium
- IC50 [2]: 18 µM
